Source: patent publication US10322140B2, “Preparation and use of 7a-heterocycle substituted-6,6-difluoro bicyclic himbacine derivatives as PAR-1 receptor antagonists” (Merck Sharp & Dohme Corp., priority 2013, dated 2019)

Legend:
[1] = target: CYP3A4 (Homo sapiens (Human), UniProt P08684); test: CYP MUX (3A4) RI; type: in vitro ADME; details: human liver microsomes, substrate testosterone, 37° C. 10 min
From the text: This assay measures inhibition of CYP3A4 by a compound. Cytochromes P450 (CYPs) constitute a superfamily of heme-containing enzymes that recognize and metabolize a large number structurally diverse xenobiotics in the human body. CYP3A4 constitutes the largest portion of CYP enzymes in the liver that accounts for the metabolism of almost 50% of all drugs. This assay is used to evaluate the potential of a compound for developing DDIs. (Clarke, S. E.; Jones B. C. Drug-Drug Interactions, New York: Marcel Dekker; 2002. pp. 53-88).
Compound dilutions and assay-ready plates were prepared on a TTP Labtech mosquito® HTS. Assay conduction was fully automated on a customized Screening Platform from Caliper (now PerkinElmer) containing a Mitsubishi robotic plate handler, Liconic incubators, a Caliper Zephyr® liquid handling workstation equipped with temperature-controlled deck positions, a Biotek MultiFlo™ dispenser and an Agilent PlateLoc heat sealer. Assay plates were Corning Costar® 384 well PP plates. High throughput mass spectrometric readout was performed on a RapidFire® 300 system coupled to an AB Sciex API 4000™ triple quadrupole device. CYP isoform 3A4 was incubated in a separate reaction of 50 μL final volume. 25 μL of HLM (human liver microsomes, BD UltraPool™ 150, 0.25 mg/mL final concentration) and the respective substrate, testosterone (75 μM) for 3A4, in potassium phosphate buffer (100 mM, pH=7.4) were added to 250 nL of stamped compound solution (10 mM in DMSO). The reactions were started upon addition of 25 μL of a co-factor solution containing magnesium chloride (3.3 mM), glucose-6-phosphate (3.3 mM), glucose-6-phosphate dehydrogenase (1.4 units) and NADP (1 mM) in potassium phosphate buffer (100 mM, pH=7.4) and incubated on deck at 37° C. for 10 min. 8 μL of each reaction were transferred to the same readout plated filled with 48 μL of stop solution containing internal standards (concentration in final readout plate), 6-hydroxytestosterone-D7 (0.5 μM), 4′-hydroxydiclofenac-D4 (0.2 and dextrorphan-D3 (0.01 in acetonitrile with 0.5% formic acid. After heat sealing, plates were stored at −20° C. for at least 30 min, centrifuged and subjected directly to RapidFire®/MS analysis.

[2] = target: PAR-1 receptor (Homo sapiens (Human), UniProt P25116); test: PAR-1 FLIPR Assay; type: cell-based; details: HEK 293 cells, calcium signal after PAR-1 selective receptor-activating peptide at EC80
Method: This assay measures the potency of the inventive compounds as PAR-1 receptor antagonists.
Frozen HEK 293 Cells were plated in 384-well PDL coated plates at 12000 cells/well in 50 uL of DMEM media containing 10% FBS, pen/strep/L-Glutamine and non-essential amino acids, incubated overnight at 37° C./5% CO2. Media was then removed from the cells, incubated with 33 uL of Calcium-5 dye in assay buffer (Hank's buffer containing 20 mM HEPES, 0.04% Chaps and 2.5 mM Probenecid) for 60 minutes at 37° C. 2 uL of varying concentrations of compound in 40% DMSO in assay buffer (final DMSO concentration is […]) were then added to the cells and incubated at 25° C. for 30 minutes. The plates were added to the FLIPR Tetra®, the device added 5 μL of PAR-1 selective receptor-activating peptide (sequence Ala-parafluoroPhe-Arg-Cha-Cit-Try-NH2, prepared in water) at a concentration equal to the effective concentration that achieved 80% activation of signaling on the day of the experiment. The range of peptide was from 1.5-3 μM. The final volume is 40 uL/well, with 2% DMSO. The FLIPR was read at an excitation wavelength of 480 nm and an emission wavelength of 535 nm, and performed 60 scans over a 1-2 min reading time. The data were analyzed by taking the peak signal over a portion of the range of the 60 scans and dividing this signal by the minimum signal for that same range. The data were expressed as percent inhibition of the maximum divided by the minimum signal achieved at 80% activation produced by the PAR1 activating peptide on the test day. The compounds of Examples 1-13 were tested in the assay described above and the data collected for these compounds is provided.

PAR-1 receptor, sequence (P25116 22-425): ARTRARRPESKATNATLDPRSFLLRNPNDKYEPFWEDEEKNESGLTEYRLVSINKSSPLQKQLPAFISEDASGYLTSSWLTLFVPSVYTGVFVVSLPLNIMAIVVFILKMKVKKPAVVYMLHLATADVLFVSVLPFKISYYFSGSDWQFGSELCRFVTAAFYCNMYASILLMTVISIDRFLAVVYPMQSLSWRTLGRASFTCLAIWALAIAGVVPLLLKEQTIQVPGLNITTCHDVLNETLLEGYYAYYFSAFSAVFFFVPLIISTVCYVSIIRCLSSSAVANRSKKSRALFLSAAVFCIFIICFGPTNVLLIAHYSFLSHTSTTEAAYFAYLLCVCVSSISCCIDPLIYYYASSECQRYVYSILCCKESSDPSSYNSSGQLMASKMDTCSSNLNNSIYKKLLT
CYP3A4, sequence (P08684 whole entry): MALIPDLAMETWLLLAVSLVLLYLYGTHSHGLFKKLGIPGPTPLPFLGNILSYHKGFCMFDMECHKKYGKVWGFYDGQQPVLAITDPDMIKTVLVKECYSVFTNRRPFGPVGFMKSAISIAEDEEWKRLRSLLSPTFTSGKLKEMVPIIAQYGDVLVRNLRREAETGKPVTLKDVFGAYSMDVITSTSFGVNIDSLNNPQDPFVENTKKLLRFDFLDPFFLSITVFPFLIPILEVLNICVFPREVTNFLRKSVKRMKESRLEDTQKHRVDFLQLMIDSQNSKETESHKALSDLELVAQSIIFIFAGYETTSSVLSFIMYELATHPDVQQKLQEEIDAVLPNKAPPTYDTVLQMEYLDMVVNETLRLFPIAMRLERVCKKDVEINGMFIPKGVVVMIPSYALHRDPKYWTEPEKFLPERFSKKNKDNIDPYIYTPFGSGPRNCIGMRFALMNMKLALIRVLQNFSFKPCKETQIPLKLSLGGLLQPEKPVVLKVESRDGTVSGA

Cc1cccc(-c2ccc(/C=C/[C@@H]3[C@@H]4[C@@H](C)OC(=O)[C@]4(c4nnc(N)o4)CC(F)(F)[C@H]3C)nc2)c1C#N [Example 3, 2-(6-((E)-2-((3R,3aS,4R,5S,7aR)-7a-(5-amino-1,3,4-oxadiazol-2-yl)-6,6-difluoro-3,5-dimethyl-1-oxooctahydroisobenzofuran-4-yl)vinyl)pyridin-3-yl)-6-methylbenzonitrile] showed an IC50 [1] of 10400 nM and an IC50 [2] of 1.22 nM.
Cc1cccc(-c2ccc(/C=C/[C@@H]3[C@@H]4[C@@H](C)OC(=O)[C@]4(c4cc(C)n(C)n4)CC(F)(F)[C@H]3C)nc2)c1C#N [Example 11] was tested, and the IC50 [1] was 17600 nM and the IC50 [2] was 6.3 nM.
C[C@H]1OC(=O)[C@]2(c3cc(C(C)(C)C)n(C)n3)CC(F)(F)[C@@H](C)[C@H](/C=C/c3ccc(-c4ccccc4C#N)cn3)[C@H]12 [Example 10, 2-(6-((E)-2-((3R,3aS,4R,5S,7aR)-7a-(5-(tert-butyl)-1-methyl-1H-pyrazol-3-yl)-6,6-difluoro-3,5-dimethyl-1-oxooctahydroisobenzofuran-4-yl)vinyl)pyridin-3-yl)benzonitrile] showed an IC50 [1] of at least 50000 nM and an IC50 [2] of 25.3 nM.
For C[C@H]1OC(=O)[C@]2(c3nnc(N)o3)CC(F)(F)[C@@H](C)[C@H](/C=C/c3ccc(-c4ccccc4C#N)cn3)[C@H]12 [Example 4, 2-(6-((E)-2-((3R,3aS,4R,5S,7aR)-7a-(5-amino-1,3,4-oxadiazol-2-yl)-6,6-difluoro-3,5-dimethyl-1-oxooctahydroisobenzofuran-4-yl)vinyl)pyridin-3-yl)benzonitrile], the IC50 [1] was 9900 nM and the IC50 [2] was 3.08 nM.
C[C@H]1OC(=O)[C@]2(c3n[nH]c(=O)o3)CC(F)(F)[C@@H](C)[C@H](/C=C/c3ccc(-c4ccccc4C#N)cn3)[C@H]12 [Example 1, 2-(6-((E)-2-((3R,3aS,4R,5S,7aR)-6,6-difluoro-3,5-dimethyl-1-oxo-7a-(5-oxo-4,5-dihydro-1,3,4-oxadiazol-2-yl)octahydroisobenzofuran-4-yl)vinyl)pyridin-3-yl)benzonitrile] showed an IC50 [1] of 21800 nM and an IC50 [2] of 4.22 nM.
In the case of C[C@H]1OC(=O)[C@]2(c3cc[nH]n3)CC(F)(F)[C@@H](C)[C@H](/C=C/c3ccc(-c4cccnc4C#N)cn3)[C@H]12 [Example 13, 6′-((E)-2-((3R,3aS,4R,5S,7aR)-6,6-difluoro-3,5-dimethyl-1-oxo-7a-(1H-pyrazol-3-yl)octahydroisobenzofuran-4-yl)vinyl)-[3,3′-bipyridine]-2-carbonitrile], the IC50 [1] is reported as 8800 nM and the IC50 [2] is reported as 6.2 nM.
With C[C@H]1OC(=O)[C@]2(c3cc[nH]n3)CC(F)(F)[C@@H](C)[C@H](/C=C/c3ccc(-c4ccccc4C#N)cn3)[C@H]12 [Example 12, 2-(6-((E)-2-((3R,3aS,4R,5S,7aR)-6,6-difluoro-3,5-dimethyl-1-oxo-7a-(1H-pyrazol-3-yl)octa hydroisobenzofuran-4-yl)vinyl)pyridin-3-yl)benzonitrile] the IC50 [1] was 2400 nM and the IC50 [2] was 0.99 nM.
For C[C@H]1OC(=O)[C@]2(c3cc(C(C)(C)C)[nH]n3)CC(F)(F)[C@@H](C)[C@H](/C=C/c3ccc(-c4ccccc4C#N)cn3)[C@H]12 [Example 9, 2-(6-((E)-2-((3R,3aS,4R,5S,7aR)-7a-(5-(tert-butyl)-1H-pyrazol-3-yl)-6,6-difluoro-3,5-dimethyl-1-oxooctahydroisobenzofuran-4-yl)vinyl)pyridin-3-yl)benzonitrile], the IC50 [2] was 14.5 nM.
Work on Cc1cccc(-c2ccc(/C=C/[C@@H]3[C@@H]4[C@@H](C)OC(=O)[C@]4(c4n[nH]c(=O)o4)CC(F)(F)[C@H]3C)nc2)c1C#N [Example 2, 2-(6-((E)-2-((3R,3aS,4R,5S,7aR)-6,6-difluoro-3,5-dimethyl-1-oxo-7a-(5-oxo-4,5-dihydro-1,3,4-oxadiazol-2-yl)octahydroisobenzofuran-4-yl)vinyl)pyridin-3-yl)-6-methylbenzonitrile] yielded an IC50 [1] of 22800 nM and an IC50 [2] of 1.34 nM.
In the case of C[C@H]1OC(=O)[C@]2(c3n[nH]c(=O)o3)CC(F)(F)[C@@H](C)[C@H](/C=C/c3ccc(-c4cccc(F)c4)cn3)[C@H]12 [Example 8, 5-((1R,3aR,6S,7R,7aS)-5,5-difluoro-7-((E)-2-(5-(3-fluorophenyl)pyridin-2-yl)vinyl)-1,6-dimethyl-3-oxooctahydroisobenzofuran-3a-yl)-1,3,4-oxadiazol-2(3H)-one], the IC50 [2] is reported as 28.7 nM.
For Cc1cccc(-c2ccc(/C=C/[C@@H]3[C@@H]4[C@@H](C)OC(=O)[C@]4(c4nnc(-c5ccccc5)o4)CC(F)(F)[C@H]3C)nc2)c1C#N [Example 7], the IC50 [2] was 5.01 nM.
Molecule Cc1cccc(-c2ccc(/C=C/[C@@H]3[C@@H]4[C@@H](C)OC(=O)[C@]4(c4nnc(C5CC5)o4)CC(F)(F)[C@H]3C)nc2)c1C#N [Example 6, 2-(6-((E)-2-((3R,3aS,4R,5S,7aR)-7a-(5-cyclopropyl-1,3,4-oxadiazol-2-yl)-6,6-difluoro-3,5-dimethyl-1-oxooctahydroisobenzofuran-4-yl)vinyl)pyridin-3-yl)-6-methylbenzonitrile] has an IC50 [2] of 2.07 nM.
Work on Cc1nnc([C@@]23CC(F)(F)[C@@H](C)[C@H](/C=C/c4ccc(-c5cccc(C)c5C#N)cn4)[C@@H]2[C@@H](C)OC3=O)o1 [Example 5, 2-(6-((E)-2-((3R,3aS,4R,5S,7aR)-6,6-difluoro-3,5-dimethyl-7a-(5-methyl-1,3,4-oxadiazol-2-yl)-1-oxooctahydroisobenzofuran-4-yl)vinyl)pyridin-3-yl)-6-methylbenzonitrile] yielded an IC50 [1] of 16900 nM and an IC50 [2] of 2.45 nM.
